The values that follow are results of earlier work, collected in patent US9238023B2, “Methods for improving health in humans” (Quality IP Holdings, LLC, priority 2012, dated 2016).

Data set [1] deals with hGH. The note with it: for effect on hGH: other amino acids, literature.
Data set [2] deals with GH. To be noted: subcutaneous injection of 0.06 IU, GH deficient subjects.

Turning to `N=C(N)NCCC[C@H](N)C(=O)O` [arginine], the “elevation of serum hGH levels” value in data set [1] (30 g, males) was 8.6 fold. Besides, in data set [1] (intravenous infusion 183 mg/kg body weight, females), the “increase of hGH levels” value is above 20 fold.

On to `N[C@@H](Cc1c[nH]cn1)C(=O)O` [histidine], for which the “effect on hGH” value in data set [1] is reported as “marked increases in hGH”. Turning to `NCCCC[C@H](N)C(=O)O` [lysine], the “effect on hGH” value in data set [1] is “marked increases in hGH”. As to `CSCC[C@H](N)C(=O)O` [methionine], the “effect on hGH” value in data set [1] is reported as “marked increases in hGH”. `NCCC[C@H](N)C(=O)O` [ornithine]: the “effect on hGH” value in data set [1] is on record as “marked increases in hGH”. In the case of `N[C@@H](Cc1ccccc1)C(=O)O` [phenylalanine], the “effect on hGH” value in data set [1] is “marked increases in hGH”.

On to “HGH: human growth hormone, subcutaneous injection in the treatment of GH deficient subjects”, for which the “mean levels of GH reached” value in data set [2] was 0.4 ng/mL.
